Data published in patent US20260067245A1, “METHODS AND COMPOSITIONS FOR TUMOR THERAPY” (MEMORIAL SLOAN KETTERING CANCER CENTER, priority 2022, published 2026).
“Also recorded” adds a separate entry of the source.

Test system: B16F10 cells
Assay: mouse bilateral tumor model, B16 murine melanoma (one tumor injected, contralateral not injected)
Assay type: in vivo
Description: By injecting only one of two tumors throughout the course of the experiment it is possible to separate the effect of the injected tumor from the “abscopal” effect on the distant non-injected tumor. Once treatment begins, tumors are measured twice weekly for at least 90 days.
Also, unless indicated otherwise, controls were treated with isotype control antibodies and vehicle only. Furthermore, unless indicated otherwise, all experiments were performed using the mouse bilateral tumor model described below and summarized in FIG. 2.
The animals used had large tumors in two opposite flanks. One tumor was injected while the second remained non-injected (FIG. 2), allowing separate analysis of the effect at the injected tumor from the so-called ‘abscopal’ effect at the non-injected tumor, in order to understand how this treatment could benefit patients with metastatic cancer. […] C57BL/6 mice were initially implanted with 5×10^5 syngeneic B16F10 cells intra-dermally in bilateral flanks. 8 days post tumor cell implantation, when bilateral tumors measured ˜0.5 cm, intratumoral (IT) treatment with various test agents was initiated together with intraperitoneal (IP) anti-PD-1 mAb. Treatment was administered twice weekly for 4 weeks into one of the bilateral tumors. The contralateral tumor remained un-injected for the duration of the experiment.
8 days post tumor cell implantation, when bilateral tumors measured ˜0.5 cm, intratumoral (IT) treatment with agents selected to activate APCs was initiated together with intraperitoneal (IP) anti-PD-1 mAb. Treatment was administered twice weekly for 4 weeks into one of the bilateral tumors. The contralateral tumor remained un-injected for the duration of the experiment (see FIG. 2 for schematic of experimental protocol).
These nanoparticles were administered to animals receiving 250 μg intraperitoneal anti-PD-1 (RMP1-14) concurrently. Non-formulated control animals received mixtures of MPL (5 μg) and FGK45 (20 μg) injected intratumorally with RMP1-14 delivered intraperitoneally. Anti-PD-1-only control animals received 250 μg of intraperitoneal RMP1-14 alone. Isotype/vehicle control animals received isotype control mAbs and vehicle corresponding to the nanoparticle-treated group.

| Compound | survival (concurrent systemic (IP) addition to intratumoral MPL, anti-IL10R and anti-CD40 (41040)) | activity when substituted for MPL in the regimen (FIG. 35B, bilateral tumor model) |
| --- | --- | --- |
| O=C1[O][Pt]2([NH][C@@H]3CCCC[C@H]3[NH]2)[O]C1=O [oxaliplatin] | increases survival | – |
| PolyIC | – | could be substituted for MPL; also recorded: can be substituted for MPL, albeit possibly with slightly reduced activity |
